For one assay, the target named is T1, Lyn (Homo sapiens, UniProt P07948).
T1 construct: purchased Reaction Biology Corp
Description: In vitro kinase assay (IC50). The format is biochemical. The protocol:
(§1) Full panel kinase profiling and kinase IC50 measurement were performed by using Reaction Biology Corp. (San Diego, USA).

The next assay has as its target T2, DDR1 (Homo sapiens, UniProt Q08345).
T2 construct: purchased Reaction Biology Corp
Description: In vitro kinase assay (IC50). It counts as biochemical. As for the experimental part: as §1

The next assay deals with T3, BMX/ETK (Homo sapiens, UniProt P51813).
T3 construct: purchased Reaction Biology Corp
Description: In vitro kinase assay (IC50). It counts as biochemical. The protocol: as §1

For a further assay, the target named is T4, Fgr (Homo sapiens, UniProt P09769).
T4 construct: purchased Reaction Biology Corp
Description: In vitro kinase assay (IC50). The format is biochemical. The protocol: as §1

Another assay addresses T5, p38a (Homo sapiens, UniProt Q16539).
T5 construct: purchased Reaction Biology Corp
Kind of assay: In vitro kinase assay (IC50). The format is biochemical. As for the experimental part: as §1

The target of another assay is T6, Abl1 (Homo sapiens, UniProt P00519).
T6 construct: purchased Reaction Biology Corp
Description: In vitro kinase assay (IC50). It counts as biochemical. As for the experimental part:
as §1

Another assay concerns the target T7, Yes (Homo sapiens, UniProt P07947).
T7 construct: purchased Reaction Biology Corp
Kind of assay: In vitro kinase assay (IC50). It counts as biochemical. The protocol: as §1

The subject of another assay is Lck (Y394). Kind of assay: Western blot of p-Lck (Y394) in anti-CD3-treated Jurkat cells. It counts as cell-based. The following applies: anti-CD3-treated Jurkat T cells, 10, 50, or 100 μM, 30 min. As for the experimental part:
Figure 6. Effect of 7a on the Lck (Y394) activation in anti-CD3-treated Jurkat cells. After treatment with CD3 antibody for coating in plates, cells were seeded and then treated with various concentrations of 7a (10, 50, or 100 μM) or A770041 (1 μM) used as a positive control. The phosphorylation of Lck tyrosine in Jurkat cells was activated by anti-CD3 mAb. Total cellular protein was resolved by SDS-PAGE, transferred to PVDF membranes, and detected with specific p-Lck (Y394) antibody. β-Actin was used as an internal control.
Jurkat cells were purchased from the Korea Cell Line Bank (Seoul, Republic of Korea) and maintained in RPMI-1640 medium containing 10% FBS, streptomycin sulphate, penicillin, HEPES, and sodium bicarbonate in a 5% CO2 atmosphere at 37 °C. Jurkat cells were stimulated with 1 μg/ml of plate-bound anti-CD3 mAb (clone HIT3a, BD Bioscience) and then incubated with KITS 1–001 (10, 50, or 100 μM) for 30 min.
The protein of Jurkat cells was extracted using a PRO-PREP (Intron Biotechnology, Seoul, Republic of Korea). The protein concentration was determined using Bio-Rad protein assay reagent according to the manufacturer’s instruction and BSA (Bio-Rad, Hercules, CA, USA) was used as a standard for quantification. […] The membranes were analysed using an enhanced chemiluminescence (ECL) substrate and imaged by LAS-4000 luminescent image analyser (FUJIFILM, Tokyo, Japan).

Where a SMILES comes first, the peptide text is derived from it. [ ]: non-standard residue; d: D form. The star is where a group is joined. X1 = Cc1ccc(Nc2ncc3c(n2)N(C)C(=O)N(c2cc(C(=O)*)ccc2C)C3)cn1; Aib = CC(C)(N)C(=O)O Where only a bound is given, the exact number is not on record here.

T4 sequence (P09769 whole entry): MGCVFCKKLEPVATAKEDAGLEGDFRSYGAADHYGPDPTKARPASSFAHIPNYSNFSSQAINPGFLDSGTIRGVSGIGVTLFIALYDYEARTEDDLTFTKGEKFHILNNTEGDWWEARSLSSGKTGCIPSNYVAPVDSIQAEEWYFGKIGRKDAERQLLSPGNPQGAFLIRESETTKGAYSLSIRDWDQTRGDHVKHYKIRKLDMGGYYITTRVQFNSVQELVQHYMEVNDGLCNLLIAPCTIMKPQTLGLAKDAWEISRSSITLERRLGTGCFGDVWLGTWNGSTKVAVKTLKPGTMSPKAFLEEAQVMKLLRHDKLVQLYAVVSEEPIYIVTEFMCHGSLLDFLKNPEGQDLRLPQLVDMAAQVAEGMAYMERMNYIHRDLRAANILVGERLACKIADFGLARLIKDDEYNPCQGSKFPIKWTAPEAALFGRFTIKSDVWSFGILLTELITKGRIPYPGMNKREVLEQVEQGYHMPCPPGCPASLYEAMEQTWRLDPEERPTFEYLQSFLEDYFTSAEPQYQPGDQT
T1 sequence (P07948 whole entry): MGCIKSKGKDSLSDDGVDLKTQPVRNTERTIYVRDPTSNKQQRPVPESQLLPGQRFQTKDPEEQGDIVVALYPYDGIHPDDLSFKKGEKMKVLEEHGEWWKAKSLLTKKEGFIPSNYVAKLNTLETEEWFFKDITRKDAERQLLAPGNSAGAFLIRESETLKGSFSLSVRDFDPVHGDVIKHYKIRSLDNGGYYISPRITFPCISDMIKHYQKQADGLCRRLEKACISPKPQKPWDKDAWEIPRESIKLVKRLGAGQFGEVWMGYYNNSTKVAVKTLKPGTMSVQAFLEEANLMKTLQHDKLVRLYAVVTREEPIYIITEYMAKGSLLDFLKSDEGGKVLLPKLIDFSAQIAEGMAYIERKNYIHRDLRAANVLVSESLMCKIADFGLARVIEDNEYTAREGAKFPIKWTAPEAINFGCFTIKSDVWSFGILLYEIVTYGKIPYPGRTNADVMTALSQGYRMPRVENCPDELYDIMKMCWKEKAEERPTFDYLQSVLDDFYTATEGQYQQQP
T2 sequence (Q08345 19-913): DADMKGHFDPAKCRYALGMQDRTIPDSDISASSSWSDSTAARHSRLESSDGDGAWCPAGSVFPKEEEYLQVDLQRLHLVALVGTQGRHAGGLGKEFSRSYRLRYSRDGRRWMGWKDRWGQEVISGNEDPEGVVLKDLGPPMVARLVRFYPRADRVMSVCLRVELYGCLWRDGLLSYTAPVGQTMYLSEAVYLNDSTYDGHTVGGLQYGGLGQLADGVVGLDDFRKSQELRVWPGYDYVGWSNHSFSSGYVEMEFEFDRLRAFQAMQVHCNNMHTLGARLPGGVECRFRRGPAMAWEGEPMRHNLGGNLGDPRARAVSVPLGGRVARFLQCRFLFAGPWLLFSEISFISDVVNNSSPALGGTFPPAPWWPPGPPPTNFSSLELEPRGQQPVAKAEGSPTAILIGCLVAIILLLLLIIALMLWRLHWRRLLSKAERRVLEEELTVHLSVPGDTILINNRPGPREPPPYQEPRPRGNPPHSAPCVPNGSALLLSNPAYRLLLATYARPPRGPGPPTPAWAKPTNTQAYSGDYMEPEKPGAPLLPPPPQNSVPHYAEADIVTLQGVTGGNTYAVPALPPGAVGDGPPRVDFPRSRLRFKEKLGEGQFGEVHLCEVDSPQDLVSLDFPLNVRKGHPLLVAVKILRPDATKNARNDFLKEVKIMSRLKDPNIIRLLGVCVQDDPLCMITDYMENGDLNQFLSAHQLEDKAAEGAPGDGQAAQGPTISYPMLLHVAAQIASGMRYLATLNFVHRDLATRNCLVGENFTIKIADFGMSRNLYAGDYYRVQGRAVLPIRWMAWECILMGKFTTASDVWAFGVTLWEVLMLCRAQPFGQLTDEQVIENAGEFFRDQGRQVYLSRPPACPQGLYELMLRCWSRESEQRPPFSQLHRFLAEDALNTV
T6 sequence (P00519 whole entry): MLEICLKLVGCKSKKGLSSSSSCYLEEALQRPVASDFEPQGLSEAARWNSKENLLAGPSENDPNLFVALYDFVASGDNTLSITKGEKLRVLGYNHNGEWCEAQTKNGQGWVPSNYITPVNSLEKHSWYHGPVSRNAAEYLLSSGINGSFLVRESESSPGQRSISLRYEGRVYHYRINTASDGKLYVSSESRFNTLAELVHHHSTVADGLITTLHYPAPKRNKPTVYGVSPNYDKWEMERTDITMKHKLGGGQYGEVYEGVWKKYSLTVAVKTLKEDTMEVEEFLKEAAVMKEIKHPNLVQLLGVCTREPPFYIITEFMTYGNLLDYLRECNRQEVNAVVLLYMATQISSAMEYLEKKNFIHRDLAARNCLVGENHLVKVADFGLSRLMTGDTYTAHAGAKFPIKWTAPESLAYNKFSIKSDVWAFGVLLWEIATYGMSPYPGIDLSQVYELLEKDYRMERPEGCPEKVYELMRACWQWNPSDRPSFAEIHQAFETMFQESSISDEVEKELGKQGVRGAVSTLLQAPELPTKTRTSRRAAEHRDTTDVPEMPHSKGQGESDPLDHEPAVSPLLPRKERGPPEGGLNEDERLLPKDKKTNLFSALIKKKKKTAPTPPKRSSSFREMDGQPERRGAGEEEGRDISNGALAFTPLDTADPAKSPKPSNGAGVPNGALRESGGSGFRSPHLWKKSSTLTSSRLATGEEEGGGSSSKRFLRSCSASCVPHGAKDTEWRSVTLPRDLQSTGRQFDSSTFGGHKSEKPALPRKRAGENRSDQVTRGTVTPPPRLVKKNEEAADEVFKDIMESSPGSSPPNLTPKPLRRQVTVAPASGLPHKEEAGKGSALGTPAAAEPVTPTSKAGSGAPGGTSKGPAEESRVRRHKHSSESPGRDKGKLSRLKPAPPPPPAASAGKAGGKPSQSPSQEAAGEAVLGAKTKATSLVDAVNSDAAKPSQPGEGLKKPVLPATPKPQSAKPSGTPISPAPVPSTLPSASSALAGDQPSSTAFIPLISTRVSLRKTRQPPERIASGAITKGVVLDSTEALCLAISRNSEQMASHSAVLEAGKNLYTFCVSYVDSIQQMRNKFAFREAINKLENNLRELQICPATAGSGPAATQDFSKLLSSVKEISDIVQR
T5 sequence (Q16539 whole entry): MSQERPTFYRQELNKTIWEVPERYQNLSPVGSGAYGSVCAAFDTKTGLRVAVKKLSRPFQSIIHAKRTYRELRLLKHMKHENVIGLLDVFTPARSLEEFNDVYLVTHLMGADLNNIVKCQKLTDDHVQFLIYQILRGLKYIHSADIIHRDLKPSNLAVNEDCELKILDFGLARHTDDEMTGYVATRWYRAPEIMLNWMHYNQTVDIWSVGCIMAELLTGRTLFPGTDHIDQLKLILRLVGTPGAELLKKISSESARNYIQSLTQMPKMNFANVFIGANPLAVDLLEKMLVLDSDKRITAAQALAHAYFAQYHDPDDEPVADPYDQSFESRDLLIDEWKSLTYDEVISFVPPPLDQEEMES
T7 sequence (P07947 whole entry): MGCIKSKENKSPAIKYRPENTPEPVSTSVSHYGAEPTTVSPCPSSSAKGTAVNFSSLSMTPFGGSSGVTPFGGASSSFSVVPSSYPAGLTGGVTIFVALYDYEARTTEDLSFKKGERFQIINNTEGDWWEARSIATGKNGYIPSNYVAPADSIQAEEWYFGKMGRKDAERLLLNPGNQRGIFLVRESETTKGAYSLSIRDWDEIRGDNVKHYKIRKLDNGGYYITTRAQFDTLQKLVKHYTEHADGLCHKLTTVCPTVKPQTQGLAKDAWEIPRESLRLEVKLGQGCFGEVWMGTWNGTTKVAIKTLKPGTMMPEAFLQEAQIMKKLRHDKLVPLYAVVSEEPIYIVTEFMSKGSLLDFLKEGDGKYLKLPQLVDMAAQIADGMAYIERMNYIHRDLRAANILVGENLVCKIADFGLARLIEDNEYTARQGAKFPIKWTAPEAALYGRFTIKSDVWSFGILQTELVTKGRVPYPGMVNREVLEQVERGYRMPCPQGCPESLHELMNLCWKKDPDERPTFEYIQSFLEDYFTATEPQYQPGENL
T3 sequence (P51813 whole entry): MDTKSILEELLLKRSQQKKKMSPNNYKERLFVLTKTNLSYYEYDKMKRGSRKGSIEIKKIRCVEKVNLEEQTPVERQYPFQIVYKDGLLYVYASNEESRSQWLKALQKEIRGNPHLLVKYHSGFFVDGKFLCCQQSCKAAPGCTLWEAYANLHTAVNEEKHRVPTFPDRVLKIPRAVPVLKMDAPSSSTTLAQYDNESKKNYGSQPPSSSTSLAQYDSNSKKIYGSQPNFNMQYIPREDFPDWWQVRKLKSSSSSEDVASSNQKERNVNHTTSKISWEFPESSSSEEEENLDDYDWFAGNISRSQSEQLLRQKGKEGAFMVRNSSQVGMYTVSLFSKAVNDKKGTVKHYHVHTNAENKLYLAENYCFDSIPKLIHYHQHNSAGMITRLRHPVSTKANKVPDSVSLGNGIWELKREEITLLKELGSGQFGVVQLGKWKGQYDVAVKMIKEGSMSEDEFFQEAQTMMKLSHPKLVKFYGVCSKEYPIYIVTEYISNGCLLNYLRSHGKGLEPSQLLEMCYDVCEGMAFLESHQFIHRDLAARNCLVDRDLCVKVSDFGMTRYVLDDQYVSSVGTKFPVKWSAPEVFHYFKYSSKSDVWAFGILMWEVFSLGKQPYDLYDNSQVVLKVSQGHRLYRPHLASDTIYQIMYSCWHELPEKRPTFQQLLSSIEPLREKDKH

As usually defined, the IC50 is the concentration needed to halve the response being measured. For `Cc1ccc(Nc2ncc3c(n2)N(C)C(=O)N(c2cc(C(=O)N[C@H](C(=O)N4CCC[C@H]4C(=O)NC(C)(C)C(=O)N[C@@H](CC(C)C)C(=O)N(C)C)C(C)C)ccc2C)C3)cn1` [7a, (S)-N-(1-(((S)-1-(dimethylamino)-4-methyl-1-oxopentan-2-yl)amino)-2-methyl-1-oxopropan-2-yl)-1-((4-methyl-3-(1-methyl-7-((6-methylpyridin-3-yl)amino)-2-oxo-1,4-dihydropyrimido[4,5-d]pyrimidin-3(2H)-yl)benzoyl)-L-valyl)pyrrolidine-2-carboxamide] (X1-VP[Aib]L-NMe2), the IC50 was 0.671 µM against Lyn; 0.11 µM against DDR1; 0.293 µM on BMX/ETK; 0.201 µM against Fgr; greater than 10 µM against p38a; 0.378 µM at Abl1. For the same compound, on Yes, the IC50 worked out at 0.495 µM. In the assay with Lck (Y394), the “phosphorylated Lck levels at tyrosine 394” value is given as “markedly reduced the phosphorylated Lck levels at tyrosine 394 residue in a concentration-dependent manner”.

These data come from PMC9067983, “Identification of highly selective type II kinase inhibitors with chiral peptidomimetic tails” (Journal of Enzyme Inhibition and Medicinal Chemistry, 2022).
